pIC50: −log10 of the molar value. Converted amounts (≈) assume the structure as drawn. The source made the active and inactive calls. The rule behind the calls is not given here.
Columns and labels:
Streptococcus pneumoniae [1] = assay: Antibacterial activity against Streptococcus pneumoniae; type: functional
Glutamate racemase = target: T1, Glutamate racemase (Streptococcus pneumoniae serotype 2 (strain D39 / NCTC 7466), UniProt Q04IS7); assay: Inhibition of Streptococcus pneumoniae glutamate racemase
T1 sequence (Q04IS7 whole entry): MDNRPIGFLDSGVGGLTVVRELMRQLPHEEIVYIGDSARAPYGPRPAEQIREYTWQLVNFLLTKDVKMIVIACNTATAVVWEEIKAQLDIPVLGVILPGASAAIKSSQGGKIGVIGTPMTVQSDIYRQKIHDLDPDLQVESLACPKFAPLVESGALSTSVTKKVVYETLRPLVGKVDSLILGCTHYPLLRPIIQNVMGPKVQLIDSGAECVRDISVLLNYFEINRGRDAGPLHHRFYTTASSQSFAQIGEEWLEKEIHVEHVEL

Enterococcus faecium = assay: Antibacterial activity against Enterococcus faecium incubated overnight by disk diffusion method; type: functional, organism-based
Staphylococcus aureus = assay: Antibacterial activity against Staphylococcus aureus incubated overnight by disk diffusion method; type: functional, organism-based
Streptococcus pneumoniae [2] = assay: Antibacterial activity against Streptococcus pneumoniae R6 incubated overnight by disk diffusion method; type: functional
Enterococcus faecalis = assay: Antibacterial activity against Enterococcus faecalis incubated overnight by disk diffusion method; type: functional, organism-based
Escherichia coli = assay: Antibacterial activity against Escherichia coli incubated overnight by disk diffusion method; type: functional, organism-based
Streptococcus pneumoniae [3] = assay: Antibacterial activity against Streptococcus pneumoniae R6 at 0.5 to 3 mg/ml incubated overnight by disk diffusion method; type: functional, organism-based
Streptococcus pneumoniae [4] = assay: Ratio of MIC for Streptococcus pneumoniae to IC50 for Streptococcus pneumoniae glutamate racemase

SMILES | MIC (Streptococcus pneumoniae [1]) [mg/L] | pIC50 (Glutamate racemase) | Activity (Enterococcus faecium) | Activity (Staphylococcus aureus) | MIC (Streptococcus pneumoniae [2]) [mg/L] | Activity (Enterococcus faecalis) | Activity (Escherichia coli) | Activity (Streptococcus pneumoniae [3]) | Ratio (Streptococcus pneumoniae [4])
N[C@H](C[C@H](C(=O)O)c1cccc(-c2ccco2)c1)C(=O)O | 0.24 (≈ 0.83 µM) | 5.76 | – | – | – | – | – | – | –
Cc1ccc(C(=O)CC(NCCc2c[nH]c3ccccc23)C(=O)O)cc1 (stereo not given) | – | – | inactive | inactive | 1000 (≈ 2850 µM) | inactive | inactive | – | –
O=C(CC(NCCc1c[nH]c2ccccc12)C(=O)O)c1ccc(F)cc1 (stereo not given) | – | – | inactive | inactive | 1000 (≈ 2820 µM) | inactive | inactive | – | –
O=C(CC(NCCc1c[nH]c2ccccc12)C(=O)O)c1ccc(Br)cc1 (stereo not given) | – | – | inactive | inactive | 1000 (≈ 2410 µM) | inactive | inactive | – | –
O=C(CC(NCCc1c[nH]c2ccccc12)C(=O)O)c1ccc(Cl)cc1 (stereo not given) | – | – | inactive | inactive | – | inactive | inactive | inactive | –
N[C@H](C[C@H](C(=O)O)c1ccc(NC(=O)Nc2ccccc2)cc1)C(=O)O | 16 (≈ 44.8 µM) | 5.86 | – | – | – | – | – | – | 100
